Source: PMC12356538, “Targeting the SARS-CoV‑2 RNA Translation Initiation Element SL1 by Molecules of Low Molecular Weight” (Journal of the American Chemical Society, 2025)
Several values for one entry are separate records, joined by “and”; a condition that tells them apart may be missing. Identical values can stand only once. Entries after “also recorded” stand apart in the source; their conditions may differ. Like-named read-outs stand apart in the source and are kept apart here.

Key:
[1] = system: SL1 Δbulge-Nanoluciferase mRNA; assay type: biochemical, SARS-CoV-2
SL1 RNA = assay: RNA-detected NMR binding site mapping (2D-1H,1H-TOCSY and 1D-1H); set-up: species or system SARS-CoV-2; settings: for 1H,1H CSPs [ppm] C16H5-H6 / 1H,1H CSPs [ppm] C19H5-H6 / 1H,1H CSPs [ppm] C20H5-H6 / 1H,1H CSPs [ppm] C21H5-H6 / 1H,1H CSPs [ppm] C28H5-H6 / 1H,1H CSPs [ppm] C33H5-H6 / 1H,1H CSPs [ppm] C34H5-H6 / 1H,1H CSPs [ppm] U9H5-H6 / 1H,1H CSPs [ppm] U10H5-H6 / 1H,1H CSPs [ppm] U11H5-H6 / 1H,1H CSPs [ppm] U13H5-H6 / 1H,1H CSPs [ppm] U17H5-H6 / 1H,1H CSPs [ppm] U18H5-H6 / 1H,1H CSPs [ppm] U25H5-H6 / 1H,1H CSPs [ppm] C15H5-H6 / 1H,1H CSPs [ppm] C32H5-H6: 2D TOCSY, RNA 150 μM, compound 1 mM, 298 K; for 1H CSPs [ppm] A12H2 / 1H CSPs [ppm] A29H2: RNA-detected 1D-1H
[2] = system: SL1 RNA labeled with 2AP at position A27; assay: 2-Aminopurine fluorescence binding assay; set-up: species or system SARS-CoV-2; settings: 0.5 μM 2AP-SL1, compound 0-400 μM, 25 °C, pH 6.2
SL1 Δbulge RNA = assay type: binding, SARS-CoV-2
[3] = system: SARS-CoV-2 SL1 RNA (SL1 wt); assay type: binding; settings: for wLOGSY factor / T2 reduction [%] / CSP [Hz]: 10 μM SL1 wt, 200 μM ligand; for wLOGSY factor / T2 reduction [%]: pH 6.2; for T2 reduction [%]: CPMG 100 vs 5 ms; for Rank: FBS ranking from summed ranks of CSP, wLOGSY and T2 results; for Rank / Normalized FBS score / 1 - normalized FBS score / FBS score: SL1 wt; for 1 - normalized FBS score: 0 lowest, 1 highest score; for FBS score: radar chart values; for CSP [Hz]: ligand 1H CSP, [RNA]:[ligand] 1:20, pH 6.2
[4] = system: SL1 (wt)-Nanoluciferase mRNA; assay type: biochemical, SARS-CoV-2
[5] = pH 6.2
SL1 wt RNA = assay: NMR-based KD estimation, ligand-detected 1D-1H titration; assay type: binding, SARS-CoV-2
[6] = system: β-Globin-Nanoluciferase mRNA; assay: Cell-free translation assay in rabbit reticulocyte lysate, Nanoluciferase readout; assay type: biochemical; settings: 0.2 μM mRNA, 2 μM compound
[7] = Suppl. Table 7, ligand constant at 100, SL1 wt RNA concentration 0-250, read-out: KDest
[8] = ligand 100 μM, SL1 RNA 0 to 200 or 250 μM, 298 K, 600 MHz, pH 6.2, read-out: KD est

| SMILES | 1H,1H CSPs [ppm] C16H5-H6 (SL1 RNA) | 1H,1H CSPs [ppm] C19H5-H6 (SL1 RNA) | 1H,1H CSPs [ppm] C20H5-H6 (SL1 RNA) | 1H,1H CSPs [ppm] C21H5-H6 (SL1 RNA) | 1H,1H CSPs [ppm] C28H5-H6 (SL1 RNA) | 1H,1H CSPs [ppm] C33H5-H6 (SL1 RNA) | 1H,1H CSPs [ppm] C34H5-H6 (SL1 RNA) | 1H,1H CSPs [ppm] U9H5-H6 (SL1 RNA) | 1H,1H CSPs [ppm] U10H5-H6 (SL1 RNA) | 1H,1H CSPs [ppm] U11H5-H6 (SL1 RNA) | 1H,1H CSPs [ppm] U13H5-H6 (SL1 RNA) | 1H,1H CSPs [ppm] U17H5-H6 (SL1 RNA) | 1H,1H CSPs [ppm] U18H5-H6 (SL1 RNA) | 1H,1H CSPs [ppm] U25H5-H6 (SL1 RNA) | 1H CSPs [ppm] A12H2 (SL1 RNA) | wLOGSY factor [3] | T2 reduction [%] [3] | Rank [3] | Normalized FBS score [3] | Kd (SL1 wt RNA; [7]) | further results |
| --- | --- | --- | --- | --- | --- | --- | --- | --- | --- | --- | --- | --- | --- | --- | --- | --- | --- | --- | --- | --- | --- |
| COc1ccc2nc(NC(=O)CN(C)C)sc2c1 [A.2] | 0.0166 ppm | 0.0190 ppm | 0.0143 ppm | 0.0230 ppm | 0.0813 ppm | 0.0085 ppm | 0.0081 ppm | 0.0247 ppm | 0.0231 ppm | 0.0462 ppm | 0.0110 ppm | 0.0143 ppm | 0.0071 ppm | 0.0361 ppm | 0.1420 ppm | 0.72 | 79.26% | 30 | 0.81 | 144 µM | effect on translation of SL1 Δbulge mRNA, in words [1]: increased translation efficiency; also recorded: about half as pronounced as that for SL1 wt; binding site / selectivity for the bulge from CSP and LB mapping, in words (SL1 RNA): bound the bulge less selectively; 1H CSPs [ppm] A29H2 (SL1 RNA): 0.0190 ppm; affinity trend compared to lead A [2]: increased affinity; CSP [Hz] (SL1 Δbulge RNA): 5.52 Hz; Normalized abs. CSP SL1 wt - CSP SL1 Δbulge (normalized selectivity score) (SL1 Δbulge RNA): 1.00; Rank (SL1 Δbulge RNA): 5; T2 reduction [%] (SL1 Δbulge RNA): 67.46%; abs. CSP SL1 wt - CSP SL1 Δbulge (SL1 Δbulge RNA): 6.71; wLOGSY factor (SL1 Δbulge RNA): 0.00; 1 - normalized FBS score [3]: 0.19; FBS score [3]: 30; CSP [Hz] [3]: 12.23 Hz; Normalized inhibition rate (normalized activity score) [4]: 0.73; SL1 wt inhibition rate [%] [4]: 36.23%; effect on translation of SL1 wt mRNA, in words [4]: significant and selective inhibition; also recorded: highest inhibition efficiency; time-resolved SL1-driven translation, in words [4]: more subtle temporal effects; solubility, in words [5]: increased solubility; Kd (SL1 wt RNA; [8]): 144 ± 31 µM; effect on translation of β-globin mRNA, in words [6]: increased translation efficiency; also recorded: boost |
| CNC(=O)Nc1nc2c(O)cc(O)cc2s1 [A.13] | 0.0032 ppm | 0.0022 ppm | 0.0022 ppm | 0.0045 ppm | 0.0278 ppm | 0.0032 ppm | 0.0087 ppm | 0.0067 ppm | 0.0112 ppm | 0.0702 ppm | 0.0209 ppm | 0.0051 ppm | 0.0022 ppm | 0.0020 ppm | 0.0630 ppm | 0.33 | 100.00% | 25 | 0.68 | 312 µM | inhibition rate [1]: ~0.5%; 1H,1H CSPs [ppm] C15H5-H6 (SL1 RNA): 0.0030 ppm; 1H,1H CSPs [ppm] C32H5-H6 (SL1 RNA): 0.0082 ppm; 1H CSPs [ppm] A29H2 (SL1 RNA): 0.0190 ppm; affinity trend compared to lead A [2]: increased affinity; FBS result (CSP, wLOGSY, T2 reduction) in words (SL1 Δbulge RNA): severe line broadening; signal disappearance; also recorded: complete loss of ligand peaks; 1 - normalized FBS score [3]: 0.32; FBS score [3]: 25; CSP [Hz] [3]: 4.11 Hz; Normalized inhibition rate (normalized activity score) [4]: 1.00; SL1 wt inhibition rate [%] [4]: 49.50% and ~50%; effect on translation of SL1 wt mRNA, in words [4]: significant and selective inhibition; also recorded: highest inhibition efficiency; also recorded: greatest translation inhibition; time-resolved SL1-driven translation, in words [4]: most pronounced delay and suppression; inhibition rate ([6]; relative to untreated control): ~10% |
| CNC(=O)Nc1nc2ccc(OC)cc2s1 [A] | 0.0050 ppm | 0.0050 ppm | 0.0050 ppm | 0.0095 ppm | 0.0502 ppm | 0.0042 ppm | 0.0054 ppm | 0.0117 ppm | 0.0179 ppm | 0.0824 ppm | 0.0242 ppm | 0.0100 ppm | 0.0010 ppm | 0.0160 ppm | 0.0041 ppm | 0.78 | 66.95% | 37 | 1.00 | 136 µM | effect on translation of SL1 Δbulge mRNA, in words [1]: increased translation efficiency; binding site / selectivity for the bulge from CSP and LB mapping, in words (SL1 RNA): binds selectively to the bulge; 1H,1H CSPs [ppm] C15H5-H6 (SL1 RNA): 0.0081 ppm; 1H,1H CSPs [ppm] C32H5-H6 (SL1 RNA): 0.0124 ppm; CSP [Hz] (SL1 Δbulge RNA): 0.00 Hz; FBS result (CSP, wLOGSY, T2 reduction) in words (SL1 Δbulge RNA): no effects; Normalized abs. CSP SL1 wt - CSP SL1 Δbulge (normalized selectivity score) (SL1 Δbulge RNA): 0.59; abs. CSP SL1 wt - CSP SL1 Δbulge (SL1 Δbulge RNA): 3.96; 1 - normalized FBS score [3]: 0.00; FBS score [3]: 37; CSP [Hz] [3]: 3.96 Hz; Normalized inhibition rate (normalized activity score) [4]: -0.03; SL1 wt inhibition rate [%] [4]: -1.66%; time-resolved SL1-driven translation, in words [4]: more subtle temporal effects; solubility, in words [5]: solubility issues; Kd (SL1 wt RNA; [8]): 136 ± 34 µM; effect on translation of β-globin mRNA, in words [6]: increased translation efficiency |
| CC(=O)c1ccc(NC(=O)CN2CCCC2)cc1 [B] | 0.0120 ppm | 0.0092 ppm | 0.0030 ppm | 0.0058 ppm | 0.0263 ppm | 0.0110 ppm | 0.0021 ppm | 0.0063 ppm | 0.0122 ppm | 0.0220 ppm | 0.0256 ppm | 0.0061 ppm | 0.0064 ppm | 0.0085 ppm |  |  |  |  |  | 150 µM | 1H,1H CSPs [ppm] C15H5-H6 (SL1 RNA): 0.0208 ppm; 1H,1H CSPs [ppm] C32H5-H6 (SL1 RNA): 0.0336 ppm; solubility, in words [5]: precipitation; Kd (SL1 wt RNA; [8]): 150 ± 46 µM |
